One compound from US8173158B2, “Methods of treating gastrointestinal disorders independent of the intake of food” (Takeda Pharmaceuticals U.S.A., Inc., priority 2007, dated 2012) can be followed below.

The nature of this data set: Effect and timing of food on pharmacokinetics of TAK-390 after a single oral dose of TAK-390MR 90 mg (phase 1, 4-way crossover). The class given is in vivo, human. The conditions noted are these: oral 90 mg dose with a high fat meal. As for the experimental part: The purpose of this study was to evaluate the effect of food on the pharmacokinetics (PK) and pharmacodynamics (PD) of TAK-390 after a single oral dose of TAK-390 MR 90 mg, made as described in Example 1. This study was a phase 1, open-label, randomized, single-dose, 4-way crossover study conducted at a single center. Healthy adult subjects were randomized on Day 1 of Period 1 to 1 of 4 sequence groups that determined the order in which patients received the 4 different dosing regimens (See, Table 4, below). […] There was a minimum washout interval of at least 5 days between the last dose in a period and the first dose in the subsequent period. […] PK parameters for TAK-390 were estimated using standard noncompartmental methods and include: tlag=time delay between drug administration and first observed concentration above the lower limit of quantitation; tmax=time to reach the observed maximum plasma concentration; Cmax=observed maximum plasma concentration; and AUC=area under the plasma concentration vs time curve from time zero the last quantifiable concentration (AUCt) and from time zero to infinity (AUC∞).

For the compound `Cc1c(OCC(F)(F)F)ccnc1C[S@@+]([O-])c1nc2ccccc2[nH]1` [dexlansoprazole], the “increase in AUC∞” value is listed as “approximately 37%” and the “increase in Cmax” value is listed as “approximately 37%”.
